Measured values published in publication PMC4111374 (Journal of Medicinal Chemistry, 2014).

How the values were obtained:
[1] = tested on: LS174T colon cancer cells; conditions: earlier report; cited from earlier work
[2] = cited from earlier work
hERG channel = hERG channel (Homo sapiens, UniProt Q12809); conditions: for interaction with hERG: [3H]-dofetilide binding assay; for ratio of IC50 for hERG inhibition to IC50 for inhibition of LS174T cell proliferation: human
[3] = tested on: LS174T colon cancer cells; test: LS174T cell proliferation; type: cell-based; conditions: for IC50: Homo sapiens, LS174T, read-out: inhibition of LS174T cell proliferation IC50, LS174T colon cancer cells, 1 to 300 nM, triplicate
[4] = water solubility of hydrochloride salts; type: physicochemical

hERG channel, sequence (Q12809 whole entry): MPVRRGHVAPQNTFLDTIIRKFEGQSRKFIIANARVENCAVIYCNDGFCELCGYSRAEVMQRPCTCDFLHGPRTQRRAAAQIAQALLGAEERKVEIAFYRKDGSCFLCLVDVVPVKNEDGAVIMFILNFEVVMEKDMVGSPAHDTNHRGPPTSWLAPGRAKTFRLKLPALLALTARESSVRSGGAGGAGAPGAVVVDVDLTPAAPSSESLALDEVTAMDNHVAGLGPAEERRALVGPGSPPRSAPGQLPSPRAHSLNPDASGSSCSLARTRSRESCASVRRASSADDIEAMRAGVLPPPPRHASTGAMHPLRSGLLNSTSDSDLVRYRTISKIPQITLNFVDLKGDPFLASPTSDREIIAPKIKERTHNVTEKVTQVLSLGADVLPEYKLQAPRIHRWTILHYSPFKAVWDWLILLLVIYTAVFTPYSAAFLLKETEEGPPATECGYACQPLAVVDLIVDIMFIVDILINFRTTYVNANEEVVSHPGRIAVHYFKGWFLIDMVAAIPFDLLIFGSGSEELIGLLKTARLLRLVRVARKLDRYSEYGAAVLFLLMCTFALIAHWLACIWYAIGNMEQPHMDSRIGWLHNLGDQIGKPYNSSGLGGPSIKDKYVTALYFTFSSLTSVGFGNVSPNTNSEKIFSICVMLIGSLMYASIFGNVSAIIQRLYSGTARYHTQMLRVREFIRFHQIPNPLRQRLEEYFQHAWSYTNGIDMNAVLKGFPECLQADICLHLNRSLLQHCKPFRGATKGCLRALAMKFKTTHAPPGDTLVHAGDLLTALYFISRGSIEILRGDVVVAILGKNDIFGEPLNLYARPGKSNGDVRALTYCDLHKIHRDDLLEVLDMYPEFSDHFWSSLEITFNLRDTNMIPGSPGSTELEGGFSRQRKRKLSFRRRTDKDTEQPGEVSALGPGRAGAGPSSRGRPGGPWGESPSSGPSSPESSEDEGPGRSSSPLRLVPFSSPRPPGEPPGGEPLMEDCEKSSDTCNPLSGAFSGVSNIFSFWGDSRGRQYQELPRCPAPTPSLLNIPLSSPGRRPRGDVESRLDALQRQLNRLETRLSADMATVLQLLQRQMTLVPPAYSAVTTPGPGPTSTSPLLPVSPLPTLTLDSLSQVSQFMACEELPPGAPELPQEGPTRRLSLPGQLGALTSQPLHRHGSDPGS

Row | SMILES | interaction with hERG (hERG channel) | ratio of IC50 for hERG inhibition to IC50 for inhibition of LS174T cell proliferation (hERG channel) | further results
1 | CN(C)c1ccc(/C=C/c2c(F)cccc2F)cc1 [FIDAS 1a, (E)-4-(2′,6′-difluorostyryl)-N,N-dimethylaniline] |  |  | in vitro activity in LS174T cells [1]: low micromolar range; half-life in vivo [2]: reasonable half-life; oral bioavailability ([2]; in vivo): good oral bioavailability
2 | CNc1ccc(/C=C/c2c(F)cccc2F)cc1 [FIDAS 1b] | did not interact appreciably with hERG | 6.5 × 10^3 | IC50 [3]: < 10 nM; IC50 for the inhibition of LS174T cells relative to 1a ([3]; LS174T cells): 4 fold
3 | CN(C)c1ccc(/C=C/c2c(F)cccc2Cl)cc1 [FIDAS 2a] |  |  | in vitro activity relative to 3a ([3]; LS174T cells, relative to 3a): 10 fold
4 | CNc1ccc(/C=C/c2c(F)cccc2Cl)cc1 [FIDAS 2b] | did not interact appreciably with hERG | 6.6 × 10^3 | IC50 [3]: < 10 nM; IC50 for the inhibition of LS174T cells relative to 1a ([3]; LS174T cells): 4 fold
5 | CN(C)c1ccc(/C=C/c2c(F)cccc2Cl)nc1 [FIDAS 5a, (E)-2-(2′-Chloro-6′-fluorostyryl)-5-(N,N-dimethylamino)pyridine] |  | 1.0 × 10^3 | 
6 | CN(C)c1ccc(/C=C/c2c(F)cccc2Cl)cn1 [FIDAS 8a, (E)-5-(2′-Chloro-6′-fluorostyryl)-2-(N,N-dimethylamino)pyridine] | did not interact appreciably with hERG | 12.7 × 10^3 | water solubility of hydrochloride salt [4]: water-soluble
7 | CNc1ccc(/C=C/c2c(F)cccc2Cl)cn1 [FIDAS 8b, (E)-5-(2′-Chloro-6′-fluorostyryl)-2-(N-methylamino)pyridine] | did not interact appreciably with hERG | 5.0 × 10^3 | water solubility of hydrochloride salt [4]: water-soluble
8 | CN(C)c1ncc(/C=C/c2c(F)cccc2F)cn1 [FIDAS 10a, (E)-5-(2′,6′-Difluorostyryl)-2-(N,N-dimethylamino)pyrimidine] |  | 0.5 × 10^3 | 
